# Test results reported in patent US20250059187A1, “COVALENTLY BINDING INHIBITORS OF G12S, G12D AND/OR G12E MUTANTS OF K-RAS GTPASE” (The Regents of the University of California, priority 2021, published 2025).
# How the values were obtained:
# [1] = system: Ba/F3:K-Ras(G12S) cells; experiment: Phospho-ERK assay in Ba/F3:K-Ras(G12S) cells; format: cell-based, murine; settings: 1 h treatment
# Method: Ba/F3 parental cells were pelleted and resuspend in IL-3 supplemented growth medium (RPMI 1640, 10% heat-inactivated FBS, 10 ng/mL mouse IL-3 medium) to 1×10^7/mL. Ba/F3 K-Ras(G12S) transductant cells were pelleted and resuspended in IL-3 free growth medium (RPMI 1640, 10% heat-inactivated FBS) to 1×10^7/mL. 25 μL cells were added to each well of a 96-well plate (2.5×10^5 cells/well), followed by 5 μL 6× compound solutions (6% DMSO). The mixture was incubated at 37° C. for 1 h. Cell lysis and subsequent high-throughput phospho-ERK assay was performed using Cisbio Advanced phospho-ERK (Thr202/Tyr204) cellular kit (PerkinElmer 64AERPEG) following the manufacturer's instructions.
# [2] = system: cell lines with confirmed KRAS p.G12S mutations; experiment: Immunoblot in four cell lines with confirmed KRAS p.G12S mutations; format: cell-based; settings: 10 μM, 2 h
# Method: (§1) Cells were passed for at least two generations after cryorecovery before they were used for assays. All cell lines were tested mycoplasma negative using MycoAlert™ Mycoplasma Detection Kit (Lonza). When indicated, cells were treated with drugs at 40-60% confluency at a final DMSO concentration of 1%. At the end of treatment period, cells were placed on ice. Unless otherwise indicated, adherent cells were washed once with ice-cold PBS (1 mL), scraped with a spatula, and pelleted by centrifugation (500×g, 5 min). Suspension cells were pelleted by centrifugation (500×g, 5 min), washed with 1 mL ice-cold PBS, and pelleted again. Cells were lysed in RIPA buffer supplemented with protease and phosphatase inhibitors (cOmplete and phosSTOP, Roche) on ice for 10 min. For RBD pulldown experiments, cells were lysed in Co-IP Lysis Buffer in lieu of RIPA buffer. Lysates were clarified by high-speed centrifugation (19,000×g, 10 min). Concentrations of lysates were determined with protein BCA assay (Thermo Fisher) and adjusted to 2 mg/mL with additional RIPA buffer (or Co-IP Lysis Buffer). […]
# (§2) Unless otherwise noted, SDS-PAGE was run with Novex 16% Bis-Tris gel (Invitrogen) in MES running buffer (Invitrogen) at 200 V for 60 min following the manufacturer's instructions. […] The membrane was washed three times with TBST (5 min each wash) and imaged on a Li-COR Odyssey fluorescence imager.
# [3] = target: T1, wild type K-Ras (Homo sapiens, UniProt P01116); experiment: Covalent modification of test protein after incubation with compound; format: binding; settings: 24-h incubation with 100 μM compound at 23° C. at pH 7.5
# T1 construct: human K-Ras (wildtype, aa 1-169); 6xHis tag + TEV cleavage site (N, cleaved yes); made in house; host or cells: E. coli BL21(DE3)
# [4] = system: parental Ba/F3 cells (with IL-3); experiment: Cell viability assay (CellTiter-Glo), parental Ba/F3 cells; format: cell-based, murine; settings: Mus musculus, BaF3; +10 ng/mL IL-3, 72 h; read-out: IC50, growth of parental Ba/F3 cells
# Method: (§3) Cells were seeded into 96-well white flat bottom plates (1,000 cells/well) (Corning) and incubated overnight. […] Cell viability was assessed using a commercial CellTiter-Glo (CTG) luminescence-based assay (Promega). Briefly, the 96-well plates were equilibrated to room temperature before the addition of diluted CTG reagent […] (1:4 CTG reagent:PBS). Plates were placed on an orbital shaker for 30 min before recording luminescence using a Spark 20M (Tecan) plate reader.
# [5] = system: SW1990 cells (homozygous KRAS p.G12D); experiment: Immunoblot in SW1990 cells (G12S ligand); format: cell-based; settings: 10 μM, 2 h
# Method: as §1, §2
# [6] = system: A549 cells (homozygous KRAS p.G12S mutation); experiment: Immunoblot and Raf-RBD pulldown in A549 cells; format: cell-based; settings: 2 h
# Method: Cells were passed for at least two generations after cryorecovery before they were used for assays. All cell lines were tested mycoplasma negative using MycoAlert™ Mycoplasma Detection Kit (Lonza). When indicated, cells were treated with drugs at 40-60% confluency at a final DMSO concentration of 1%. At the end of treatment period, cells were placed on ice. Unless otherwise indicated, adherent cells were washed once with ice-cold PBS (1 mL), scraped with a spatula, and pelleted by centrifugation (500×g, 5 min). Suspension cells were pelleted by centrifugation (500×g, 5 min), washed with 1 mL ice-cold PBS, and pelleted again. Cells were lysed in RIPA buffer supplemented with protease and phosphatase inhibitors (cOmplete and phosSTOP, Roche) on ice for 10 min. For RBD pulldown experiments, cells were lysed in Co-IP Lysis Buffer in lieu of RIPA buffer. Lysates were clarified by high-speed centrifugation (19,000×g, 10 min). Concentrations of lysates were determined with protein BCA assay (Thermo Fisher) and adjusted to 2 mg/mL with additional RIPA buffer (or Co-IP Lysis Buffer). Samples were mixed with 5×SDS Loading Dye and heated at 95° C. for 5 min.
# Ras·GTP pulldown was performed with GST-RBD agarose beads (Cytoskeleton, 10 μL, 30 μg loaded GST-RBD). 50 μL lysate (2 mg/mL) was mixed with 10 μL beads, and the suspension was incubated at 4° C. for 1 h with constant end-to-end rotation. The beads were settled by centrifugation (500×g, 5 min) and the supernatant was carefully removed. The beads were washed with 2×500 μL ice-cold Co-IP wash buffer. Bound protein was eluted with 10 μL 2×SDS Loading Buffer.
# Membranes were blocked in 5% BSA-TBST for 1 h at 23° C. […] After washing the membrane three times with TBST (5 min each wash), secondary antibodies (goat anti-rabbit IgG-IRDye 800 and goat anti-mouse IgG-IRDye 680, Li-COR) were added as solutions in 5% skim milk-TBST at the dilutions recommended by the manufacturer. Secondary antibody binding was allowed to proceed for 1 h at 23° C. The membrane was washed three times with TBST (5 min each wash) and imaged on a Li-COR Odyssey fluorescence imager.
# [7] = system: Ba/F3:K-Ras(G12S) cells (without IL-3); experiment: Cell viability assay (CellTiter-Glo), Ba/F3:K-Ras(G12S) cells; format: cell-based, murine
# Method: as §3
# T1 sequence (P01116 1-169 isoform P01116-2): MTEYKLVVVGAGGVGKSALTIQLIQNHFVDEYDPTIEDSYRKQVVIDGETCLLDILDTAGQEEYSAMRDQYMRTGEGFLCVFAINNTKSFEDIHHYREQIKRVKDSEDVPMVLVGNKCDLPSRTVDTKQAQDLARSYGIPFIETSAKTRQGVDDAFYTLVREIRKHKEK
structure (smiles),measurement,setting,value
O=C1O[C@H]2CN(c3nc(OCC45CCCN4CCC5)nc4c(F)c(-c5cccc6cccc(Cl)c56)ncc34)CC[C@@H]12 [5′],phospho-ERK levels,[1],dose-dependent reduction of phospho-ERK levels
same,phospho-ERK level and K-Ras gel mobility,[2],reduction of phospho-ERK level and gel mobility shift of the K-Ras protein
same,% covalent modification of wild type K-Ras,[3],0%
same,IC50,[4],12500 nM
same,signaling in SW1990 cells,[5],did not perturb the signaling
same,"effects on phospho-Akt, phospho-Erk and Ras·GTP levels",[6]; 10 μM,nearly complete loss of Ras·GTP and concomitant inhibition of phospho-Erk
same,IC50,"[6]; Homo sapiens, A549 cells, read-out: apparent IC50, inhibition of Ras signaling",~3000 nM
same,"selectivity, Ba/F3:K-Ras(G12S) over parental Ba/F3 cells",[7],five-fold
same,IC50,"[7]; Mus musculus, BaF3, no IL-3, 72 h, read-out: IC50, growth of K-Ras(G12S)-transduced Ba/F3 cells",2400 nM
